Data as given in PubChem BioAssay AID256 (DTP/NCI, 2004).
Toxic doses and inconclusive results are not listed.

Tested on: CD2F1 mice, L1210 leukemia ip, survival T/C
Assay: NCI In Vivo Anticancer Drug Screen. Data for tumor model L1210 Leukemia (intraperitoneal) in CD2F1 (CDF1) mice
Conditions: higher = longer survival
Procedure, shortened: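 Implant tumor; dose compound or vehicle; measure endpoint in both groups; report treated divided by control.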

[1] = endpoint: mean survival time, dose: 12.5 mg/kg/injection, schedule: Q01DX009 (ip), vehicle: saline
[2] = endpoint: mean survival time, dose: 25.0 mg/kg/injection, schedule: Q01DX009 (ip), vehicle: saline
[3] = endpoint: mean survival time, dose: 50.0 mg/kg/injection, schedule: Q01DX009 (ip), vehicle: saline
[4] = endpoint: mean survival time, dose: 100.0 mg/kg/injection, schedule: Q01DX009 (ip), vehicle: saline with Tween-80
[5] = endpoint: mean survival time, dose: 200.0 mg/kg/injection, schedule: Q01DX009 (ip), vehicle: saline with Tween-80
[6] = endpoint: mean survival time, dose: 12.5 mg/kg/injection, schedule: Q01DX009 (ip), vehicle: saline with Tween-80
[7] = endpoint: mean survival time, dose: 25.0 mg/kg/injection, schedule: Q01DX009 (ip), vehicle: saline with Tween-80
[8] = endpoint: mean survival time, dose: 100.0 mg/kg/injection, schedule: Q04DX003 (ip), vehicle: saline
[9] = endpoint: mean survival time, dose: 200.0 mg/kg/injection, schedule: Q04DX003 (ip), vehicle: saline
[10] = endpoint: mean survival time, dose: 100.0 mg/kg/injection, schedule: Q04DX003 (ip), vehicle: saline with Tween-80
[11] = endpoint: mean survival time, dose: 200.0 mg/kg/injection, schedule: Q04DX003 (ip), vehicle: saline with Tween-80
[12] = endpoint: mean survival time, dose: 400.0 mg/kg/injection, schedule: Q04DX003 (ip), vehicle: saline with Tween-80
[13] = endpoint: mean survival time, dose: 50.0 mg/kg/injection, schedule: Q04DX003 (ip), vehicle: saline

N#Cc1nc2c(nc1N)CCCCCCCCCC2
T/C (endpoint: mean survival time, dose: 100.0 mg/kg/injection, schedule: Q01DX001 (ip), vehicle: Klucel (hydroxypropylcellulose) (HPC)): 87 % of control
T/C (endpoint: mean survival time, dose: 200.0 mg/kg/injection, schedule: Q01DX001 (ip), vehicle: Klucel (hydroxypropylcellulose) (HPC)): 87 % of control
T/C (endpoint: mean survival time, dose: 400.0 mg/kg/injection, schedule: Q01DX001 (ip), vehicle: Klucel (hydroxypropylcellulose) (HPC)): 87 % of control

O=C1CCCCc2c1ccc(O)c2[N+](=O)[O-]
T/C [1]: 113 % of control
T/C [2]: 106 % of control
T/C [3]: 97 % of control

CCCCCCOS(=O)OCC(Cl)COC (stereo not drawn)
T/C [4]: 97 % of control
T/C [5]: 94 % of control

CC(=O)CC(C)=O.CC(=O)CC(C)=O.[Pd]
T/C (endpoint: mean survival time, dose: 6.25 mg/kg/injection, schedule: Q04DX002 (ip), vehicle: saline with Tween-80): 96 % of control
T/C (endpoint: mean survival time, dose: 12.5 mg/kg/injection, schedule: Q04DX002 (ip), vehicle: saline with Tween-80): 87 % of control

CCOC(=O)C(C)C(O)c1ccc(OC)cc1 (stereo not drawn)
T/C [6]: 101 % of control
T/C [7]: 101 % of control
T/C (endpoint: mean survival time, dose: 50.0 mg/kg/injection, schedule: Q01DX009 (ip), vehicle: saline with Tween-80): 93 % of control

Cc1ccc(S(=O)(=O)CN(O)C(N)=O)cc1
T/C (endpoint: mean survival time, dose: 7.5 mg/kg/injection, schedule: Q01DX009 (ip), vehicle: saline with Tween-80): 93 % of control
T/C (endpoint: mean survival time, dose: 15.0 mg/kg/injection, schedule: Q01DX009 (ip), vehicle: saline with Tween-80): 102 % of control
T/C (endpoint: mean survival time, dose: 30.0 mg/kg/injection, schedule: Q01DX009 (ip), vehicle: saline with Tween-80): 93 % of control
T/C (endpoint: mean survival time, dose: 60.0 mg/kg/injection, schedule: Q01DX009 (ip), vehicle: saline with Tween-80): 107 % of control
T/C (endpoint: mean survival time, dose: 120.0 mg/kg/injection, schedule: Q01DX009 (ip), vehicle: saline with Tween-80): 105 % of control
T/C (endpoint: mean survival time, dose: 240.0 mg/kg/injection, schedule: Q01DX009 (ip), vehicle: saline with Tween-80): 115 % of control

COC(Cn1cnc2c(N)ncnc21)OC
T/C [8]: 110 % of control
T/C [9]: 98 % of control
T/C (endpoint: mean survival time, dose: 400.0 mg/kg/injection, schedule: Q04DX003 (ip), vehicle: saline): 112 % of control

OC1C(COCc2ccccc2)OC(n2cccc2)C1O (stereo not drawn)
T/C (endpoint: median survival time, dose: 8.75 mg/kg/injection, schedule: Q01DX005 (ip), vehicle: distilled water + Tween-80): 98 % of control
T/C (endpoint: median survival time, dose: 17.5 mg/kg/injection, schedule: Q01DX005 (ip), vehicle: distilled water + Tween-80): 101 % of control
T/C (endpoint: median survival time, dose: 35.0 mg/kg/injection, schedule: Q01DX005 (ip), vehicle: distilled water + Tween-80): 104 % of control
T/C (endpoint: median survival time, dose: 70.0 mg/kg/injection, schedule: Q01DX005 (ip), vehicle: distilled water + Tween-80): 112 % of control
T/C (endpoint: median survival time, dose: 140.0 mg/kg/injection, schedule: Q01DX005 (ip), vehicle: distilled water + Tween-80): 98 % of control

COc1ccc2c(c1O)-c1cc(O)cc3c1C(C2)N(CCCl)CC3 (stereo not drawn)
T/C (endpoint: mean survival time, dose: 3.13 mg/kg/injection, schedule: Q04DX003 (ip), vehicle: water): 104 % of control
T/C (endpoint: mean survival time, dose: 6.25 mg/kg/injection, schedule: Q04DX003 (ip), vehicle: water): 102 % of control
T/C (endpoint: mean survival time, dose: 12.5 mg/kg/injection, schedule: Q04DX003 (ip), vehicle: water): 105 % of control
T/C (endpoint: mean survival time, dose: 25.0 mg/kg/injection, schedule: Q04DX003 (ip), vehicle: DMSO): 102 % of control
T/C (endpoint: mean survival time, dose: 25.0 mg/kg/injection, schedule: Q04DX003 (ip), vehicle: water): 100 % of control
T/C (endpoint: mean survival time, dose: 50.0 mg/kg/injection, schedule: Q04DX003 (ip), vehicle: water): 88 % of control

CCCCCCCCCCCCCCCCCCCCCC(=O)OC
T/C [4]: 102 % of control
T/C [10]: 89 % of control
T/C [5]: 103 % of control
T/C [11]: 90 % of control
T/C (endpoint: mean survival time, dose: 400.0 mg/kg/injection, schedule: Q01DX009 (ip), vehicle: saline with Tween-80): 100 % of control
T/C [12]: 87 % of control

CC[N+](C)(CC)CCCOC(=O)C(c1ccccc1)c1ccccc1
T/C (endpoint: mean survival time, dose: 6.25 mg/kg/injection, schedule: Q01DX009 (ip), vehicle: saline with Tween-80): 96 % of control
T/C [6]: 96 % of control
T/C [7]: 94 % of control

COc1cccc2c1C(=O)c1c(O)c3c(c(O)c1C2=O)C[C@@](O)(C(=O)COC(=O)Cc1ccccc1)C[C@@H]3OC1CC(N)C(O)C(C)O1 (stereo partly drawn)
T/C (endpoint: mean survival time, dose: 0.5 mg/kg/injection, schedule: Q01DX009 (ip), vehicle: saline with Tween-80): 123 % of control
T/C (endpoint: mean survival time, dose: 1.32 mg/kg/injection, schedule: Q01DX009 (ip), vehicle: saline): 118 % of control
T/C (endpoint: mean survival time, dose: 2.0 mg/kg/injection, schedule: Q01DX009 (ip), vehicle: saline): 114 % of control
T/C (endpoint: mean survival time, dose: 3.0 mg/kg/injection, schedule: Q01DX009 (ip), vehicle: saline): 117 % of control
T/C (endpoint: mean survival time, dose: 8.0 mg/kg/injection, schedule: Q01DX009 (ip), vehicle: saline with Tween-80): 96 % of control
T/C (endpoint: mean survival time, dose: 10.0 mg/kg/injection, schedule: Q04DX003 (ip), vehicle: saline with Tween-80): 158 % of control
T/C (endpoint: mean survival time, dose: 20.0 mg/kg/injection, schedule: Q01DX001 (ip), vehicle: saline with Tween-80): 107 % of control
T/C (endpoint: mean survival time, dose: 20.0 mg/kg/injection, schedule: Q04DX003 (ip), vehicle: saline with Tween-80): 102 % of control

Cc1cc(SCSc2cc(C)[o+]c(C)c2)cc(C)[o+]1
T/C (endpoint: mean survival time, dose: 100.0 mg/kg/injection, schedule: Q04DX003 (ip), vehicle: Klucel (hydroxypropylcellulose) (HPC)): 100 % of control
T/C (endpoint: mean survival time, dose: 200.0 mg/kg/injection, schedule: Q04DX003 (ip), vehicle: Klucel (hydroxypropylcellulose) (HPC)): 104 % of control
T/C (endpoint: mean survival time, dose: 400.0 mg/kg/injection, schedule: Q04DX003 (ip), vehicle: Klucel (hydroxypropylcellulose) (HPC)): 102 % of control

O=C(N/N=C/c1ccccc1)c1ccc(Cl)cc1
T/C (endpoint: mean survival time, dose: 100.0 mg/kg/injection, schedule: Q01DX009 (ip), vehicle: Klucel (hydroxypropylcellulose) (HPC)): 94 % of control
T/C (endpoint: mean survival time, dose: 200.0 mg/kg/injection, schedule: Q01DX009 (ip), vehicle: Klucel (hydroxypropylcellulose) (HPC)): 97 % of control
T/C (endpoint: mean survival time, dose: 400.0 mg/kg/injection, schedule: Q01DX009 (ip), vehicle: Klucel (hydroxypropylcellulose) (HPC)): 101 % of control

COc1ccccc1OC(=O)Nc1ccccc1F
T/C [10]: 101 % of control
T/C [11]: 97 % of control
T/C [12]: 101 % of control

CN1CC(C(=O)NC2CCCCC2)CC2c3cccc4[nH]cc(c34)CC21 (stereo not drawn)
T/C [13]: 96 % of control
T/C [8]: 92 % of control
T/C [9]: 102 % of control

O=C(On1nnc2ccccc2c1=O)c1ccccc1
T/C (endpoint: mean survival time, dose: 12.5 mg/kg/injection, schedule: Q01DX001 (ip), vehicle: distilled water + Tween-80): 102 % of control
T/C (endpoint: mean survival time, dose: 25.0 mg/kg/injection, schedule: Q01DX001 (ip), vehicle: distilled water + Tween-80): 101 % of control
T/C (endpoint: mean survival time, dose: 50.0 mg/kg/injection, schedule: Q01DX001 (ip), vehicle: distilled water + Tween-80): 98 % of control
T/C (endpoint: mean survival time, dose: 100.0 mg/kg/injection, schedule: Q01DX001 (ip), vehicle: distilled water + Tween-80): 100 % of control
T/C (endpoint: mean survival time, dose: 200.0 mg/kg/injection, schedule: Q01DX001 (ip), vehicle: distilled water + Tween-80): 97 % of control

Cc1ccc2c(c1)N(CCCN(C)C)c1ccccc1S2
T/C (endpoint: mean survival time, dose: 22.0 mg/kg/injection, schedule: Q04DX003 (ip), vehicle: saline): 105 % of control
T/C (endpoint: mean survival time, dose: 33.0 mg/kg/injection, schedule: Q04DX003 (ip), vehicle: saline): 97 % of control
T/C [13]: 105 % of control
T/C (endpoint: mean survival time, dose: 75.0 mg/kg/injection, schedule: Q04DX003 (ip), vehicle: saline): 103 % of control

C=CCC1(C)C(=O)CCC2=C1CCc1c(OC)cccc12 (stereo not drawn)
T/C (endpoint: mean survival time, dose: 100.0 mg/kg/injection, schedule: Q01DX001 (ip), vehicle: saline): 90 % of control
T/C (endpoint: mean survival time, dose: 200.0 mg/kg/injection, schedule: Q01DX001 (ip), vehicle: saline): 90 % of control
T/C (endpoint: mean survival time, dose: 400.0 mg/kg/injection, schedule: Q01DX001 (ip), vehicle: saline): 92 % of control

C=C(CC(=O)OC)C(=O)O
T/C [1]: 98 % of control
T/C [2]: 98 % of control
T/C [3]: 107 % of control
T/C [10]: 95 % of control
T/C [11]: 98 % of control
T/C [12]: 97 % of control

COc1ccc(COC(=O)Nc2ccc(C)cc2)cc1
T/C (endpoint: mean survival time, dose: 50.0 mg/kg/injection, schedule: Q04DX002 (ip), vehicle: saline with Tween-80): 100 % of control
T/C (endpoint: mean survival time, dose: 100.0 mg/kg/injection, schedule: Q04DX002 (ip), vehicle: saline with Tween-80): 100 % of control
T/C (endpoint: mean survival time, dose: 200.0 mg/kg/injection, schedule: Q04DX002 (ip), vehicle: saline with Tween-80): 96 % of control
